Measured values taken from patent US20220002268A1, “NOVEL HETEROARYL-TRIAZOLE AND HETEROARYL-TETRAZOLE COMPOUNDS AS PESTICIDES” (Bayer Aktiengesellschaft, priority 2019, published 2022).

Columns and labels:
[1] = log P by HPLC on reversed phase, acidic range; format: physicochemical; settings: reversed phase HPLC column, LC-UV, 0.1% formic acid in water and acetonitrile
Method: (§1) Measurement of log P values was performed according to EEC directive 79/831 Annex V.A8 by HPLC (High Performance Liquid Chromatography) on reversed phase columns with the following methods. […] Calibration was done with straight-chain alkan-2-ones (with 3 to 16 carbon atoms) with known log P values (measurement of log P values using retention times with linear interpolation between successive alkanones). Lambda-max-values were determined using UV-spectra from 200 nm to 400 nm and the peak values of the chromatographic signals.

[2] = log P by HPLC on reversed phase, neutral range; format: physicochemical; settings: reversed phase HPLC column, LC-UV, 0.001 molar ammonium acetate solution in water and acetonitrile
Method: as §1, with “methods. Instrument(s): Agilent 1100 LC system, Agilent MSD system, HTS PAL; Waters IClass Acquity UPLC, SQD2 (MS), PDA (UV).” for “methods.”

SMILES: c1cnc(-n2ncnc2CNCC2CC2)nc1 [a-001, 1-cyclopropyl-N-{[1-(pyrimidin-2-yl)-1H-1,2,4-triazol-5-yl]methyl}methanamine]
- chromatographic logP [1]: 0.83
- chromatographic logP [2]: 0.83
